Source: a melting point compilation (Tetko et al.; mined from patent text by program, amines drawn as free bases though some values may be those of a salt)

Compound | melting point [°C]
O=C(CCl)c1scc(Br)c1Br | 86 to 88
C=CC1(C=C)OC(C(=O)O)Oc2ccc(Cl)cc21 (centres undefined) | 144
Cc1c(-c2ccccc2)oc2c(C(=O)NCCCN3CCC(n4c(=O)[nH]c5ccccc54)CC3)cccc2c1=O | 238 to 241
COc1cc(C(C)=O)ccc1OCCCN1CCC(c2noc3cc(Cl)ccc23)CC1 | 116 to 118
CN1C=CC(c2ccccc2)=C(O)C1 | 154 to 157
CC(C)NC(=O)c1ccc(C(=O)N2CCN(c3ncccc3N)CC2)nc1 | 142 to 143
CN1CCN(c2cc3c(cc2C(F)(F)F)[nH]c(=O)c2n[nH]c(=O)n23)CC1 | > 300
O=C(O)COc1ccc(-c2cc(O)c(SCCc3ccccc3)c(=O)o2)cc1 | 182 to 183
CC(C)(C)c1cc(CN2CC(N(O)C(=O)Oc3ccccc3)C2)cc(C(C)(C)C)c1O | 161 to 163
CCOC(=O)c1cc(S(=O)(=O)N2c3ccccc3-c3ccccc3C2C)ccc1OCC (centres undefined) | 113 to 115
CNc1ccc2c(c1)C(c1ccccc1F)=NCc1cnc(C)n1-2 | 255 to 259
O=C1CN(Cc2n[nH]c(=O)[nH]2)[C@@H](c2ccccc2)[C@@H](COCc2cc(C(F)(F)F)cc(C(F)(F)F)c2)N1 | 138 to 140
CCN(CC)c1ccc(C2(N(c3ccc(NC(C)=O)cc3)c3ccc(NC(C)=O)cc3)OC(=O)c3ccccc32)c(C)c1 (centres undefined) | 179 to 182
O=C(O)/C=C/c1ccc(-c2nc3c(=O)n(CCC4=CCCCC4)c(=O)n(CCC4=CCCCC4)c3[nH]2)cc1 | > 250
CSc1nccc(C)c1NC(=O)CCCCCCCCSc1nc2ccccc2o1 | 91 to 92
Nc1nc(/C(=N/OCC(=O)OC(c2ccccc2)c2ccccc2)C(=O)O)cs1 | 125
CC(C)N1CCN(Cc2ccc(Cl)nc2)C1=N[N+](=O)[O-] | 138 to 142
CCC(=O)OC(CC)c1ccc(Cl)c2nc3n(c12)CCCN3c1ccc(Cl)cc1Cl (centres undefined) | 133 to 135
COc1c(Cl)cc(NC(=O)OCCCl)c(OC)c1NC(=O)OCCCl | 87
Cc1nc(-c2ccc(=O)n(C(C)C)n2)c(-c2ccccc2)nc1O | > 250
Cc1nc(N2CCCC(Cc3cccc(F)c3)C2=O)sc1C(=O)NCc1ccccc1 (centres undefined) | 170 to 171
CC(C)N(CC1CCCCN1CCNC(=O)N1c2ccccc2C(=O)Nc2cccnc21)C(C)C (centres undefined) | 181 to 182
Nc1ccc(F)c(SC(F)(F)F)c1 | 120
Cc1ccc(-n2ncc(C(=O)O)c2C)cc1 | 203
O=C(O)c1ccc2cc(-c3ccc(OCC(O)CO)c(C45CC6CC(CC(C6)C4)C5)c3)ccc2c1 (centres undefined) | 278
CNC(=O)C(S(=O)(=O)CCCl)S(=O)(=O)CCCl | 173 to 175
Cc1c(C2CCC(c3ccccc3)(N(C)C)CC2)[nH]c2ccc(C(F)(F)F)cc12 (centres undefined) | 204 to 217
O=C1c2ccccc2C(O)C1Cc1ncc(C(F)(F)F)cc1Cl (centres undefined) | 174 to 178

Compound | melting point [°C]
Cc1oc(-c2ccccc2)nc1C(O)c1cc2cc(Br)ccc2o1 (centres undefined) | 152 to 154
Cc1cccc(C)c1CNc1cc(Br)cc2c1nc(C)n2O | 277
CCOC(=O)c1cnc2ccc(F)cc2c1O | > 260
CCCCCCCCCCCCCCCCCCNC(=O)Nc1ccc(O)cc1 | 144
CCCN(CCC)C1Cc2c(OC)ccc3ncn(c23)C1 (centres undefined) | 46 to 49
CC(=O)N1CCc2cc(C(=O)CN(Cc3ccccc3)Cc3ccccc3)ccc21 | 130
CC(C)NS(=O)(=O)c1ccc(N2CCC(N3C(=O)OCc4ccccc43)CC2)c([N+](=O)[O-])c1 | 168
O=C(NCC1CCc2n[nH]cc2C1)[C@@H]1CCCN1C(=O)[C@@H](CC1CCCCC1)NS(=O)(=O)Cc1ccccc1 (some centres undefined) | 100 to 103
COC(=O)c1ccc(C(=O)N2Cc3cccn3Cc3ccccc32)cc1 | 186 to 188
CCN1C(=O)CC(=O)N(CC)C1=O | 52
N#Cc1ccsc1N=Cc1ccc([N+](=O)[O-])s1 | 192 to 194
Oc1nn(Cc2ccccc2)cc1CCCC1OCCO1 | 93 to 94
O=C(c1cccs1)c1cnn2c(-c3cccc(NC(=O)C4CC4)c3)ccnc12 | 191 to 192
CCCS(=O)(=O)c1sc(C(N)=O)c2c1-c1c(cnn1CC)CC2 | 143 to 144
NS(=O)(=O)c1ccc(-c2cccc(-c3nc(-c4ccc(F)cc4)cc(C(F)(F)F)n3)c2)s1 | 228
COc1cc(C)c(O)c(CCCCCCCCCCO)n1 | 80 to 81
O=C(O)c1cccc(-c2coc3c(O)c(O)ccc3c2=O)c1 | 313 to 314
COC(=O)c1cc(C#N)c2cc(Cc3ccc(F)cc3)cnc2c1O | 178 to 179
COCCOc1nc(Nc2cccc(NS(C)(=O)=O)c2)nc2[nH]cnc12 | 201 to 204
CC(=O)OCC1CCc2cc3ccccc3n2CC1 (centres undefined) | 77 to 79
CC(=O)OC1CSC(Oc2cccnc2-c2nnn[nH]2)C(OC(C)=O)C1OC(C)=O (centres undefined) | 119 to 127
O=C1COC(=O)c2ccccc2N1 | 200 to 201
Cn1c(=O)n(CC(=O)N(CCO)c2ccccc2)c2cnc(-c3ccccc3)nc21 | 231 to 233
CS(=O)(=O)CC(=O)N[C@H]1CC[C@H](CCN2CCC(c3cccc4c3CCO4)CC2)CC1 | 211
FCc1cccc(C#CCCn2nc3cc(F)c(F)cc3n2)n1 | 104 to 105
N#Cc1cccc(C(=O)Nc2c(Cl)cncc2Cl)c1 | 242 to 244
COC(=O)c1nc(Cl)c(Cl)c(N)c1OC | 119 to 121

Other lines, results leading:

melting point [°C] | Compound
< 40 | CC(=O)O[C@@H]1CC(c2ccccc2)(c2ccccc2)[C@@H]2CN(Cc3ccccc3)C[C@@H]2C1=O (racemic)
80 to 82 | CC1(C)COS(=O)(=O)OC1
132 to 135 | CC(C)(C(=O)Nc1cc(Cl)cc(Cl)c1)N1COC(C#N)=C(c2ccccc2)C1=O
272 to 275 | Cc1cc(-c2ccc(C(F)(F)F)cc2)nc(-c2ccc(C(=O)O)cc2)n1
160 to 162 | Cc1ccc(NC(=O)c2cccc([N+](=O)[O-])c2)cc1
47 to 48 | CCCCCCCCCCC[C@H](CC(=O)N[C@@H](CO)CCCN)OCc1ccccc1
88 to 90 | CCCCNC(=O)[C@@H]1CCCN1C(=O)OCc1ccccc1
108 | OC(CNC1=NCCN1)c1cccc(Cl)c1 (centres undefined)
63 | CCOC(=O)c1cc2n(n1)CCOC2
162 | NC(=O)[C@H]1CCCN1C(c1ccccc1)(c1ccccc1)c1ccccc1
138 to 141 | CCNC1(c2ccccc2Cl)C(=O)N(Cc2ccc(C(=O)NC(C)(CO)CO)cc2)c2ccc(Cl)cc21 (centres undefined)
147 to 150 | c1ccc(-n2nnc3c4ccccc4c(OCc4ccccn4)nc32)cc1
163 to 165 | Cc1c(Br)cccc1N1CCn2c(cc3c2CCCC3)C1=O
171 to 173 | CSC(=S)NN=Cc1ccccn1
255 to 259 | CN(Cc1ccc(NC(=O)C2=Cc3cc(-c4ccc(N5CCOCC5)cc4)ccc3SCC2)cc1)C1CCOCC1
106 to 108 | CCc1nn(CCO)c(CO)c1Sc1cc(Cl)cc(Cl)c1
145 to 146 | CCN(CC)C(=O)CCCC1CCN(Cc2cnc3c(C)c(NC(=O)c4ccc(-c5ccc(F)cc5)cc4)ccc3c2)CC1
94 to 97 | COC1CC(OCc2ccccc2)C(OS(=O)(=O)c2ccc(C)cc2)C(COC(c2ccccc2)(c2ccccc2)c2ccccc2)O1 (centres undefined)
65 to 66 | O=C(c1ccc(Cl)cc1)C1(c2ccccc2Cl)CO1 (centres undefined)
112 | CSC(N)=C(Cc1ccccc1)[N+](=O)[O-]
88 to 89 | CCOC(=O)CCCCCCCn1c(=O)[nH]c2ccccc2c1=O
136 to 138 | CC(c1ccccc1)N1C(=O)NCc2c(-c3ccccc3)cccc21 (centres undefined)

melting point [°C] | Compound
199 to 200 | Cc1nc(N)c2nc(C)n(CCCCCS(C)(=O)=O)c2c1C
355 to 358 | Cc1nc2cc(-c3cccc(C=C4SC(=O)NC4=O)c3)cc(C34CC5CC(CC(C5)C3)C4)c2o1
135 to 136 | O=C(O)COc1ccc(CCNS(=O)(=O)c2ccccc2)cc1[N+](=O)[O-]
138 to 140 | Cn1c(C=NNCCO)cnc1[N+](=O)[O-]
186 | O=C(NO)[C@H](CNS(=O)(=O)c1ccc(OCc2ccccc2)cc1)N1CCCC1
110 to 114 | Cc1cc(F)ccc1NC(=O)CCC#Cc1ccccn1
166 to 168 | CCOC(=O)c1cnc2ccc(I)cn2c1=O
129 to 130 | O=S(=O)(Oc1ccc(Oc2ccc(OS(=O)(=O)c3ccccc3)cc2)cc1)c1ccccc1
188 to 191 | CN(Cc1ccc(C(=O)O)cc1)c1ccc(Cl)cc1
138 to 139 | CCN(CC)CCNC(=O)c1cc(Cl)c(N)cc1OCC(=O)Cc1ccccc1
155 | O=C(CC1(O)CCC1)N[C@H]1CC[C@H](CCN2CCN(c3nccc4c3OCC4)CC2)CC1
60 | CSc1ccc(N2CCON(C)C2=O)cc1C(F)(F)F
83 to 84 | CCC(CN1CCCCC1)C(=O)c1cc(-c2ccccc2)no1 (centres undefined)
121 to 122 | O=C(O)Cc1ccc(Br)cc1F
96 to 99 | O[C@@H](COc1cccc(-c2noc3ccsc23)c1)CN1CCN(c2ccccc2F)CC1
146 to 149 | CC(=O)NCCC1CCc2ccc3nn(C)c(C)c3c21 (centres undefined)
67 to 68 | CN=C=Nc1ccccc1N1CCOCC1
142 to 143 | CCOc1nn(Cc2cc(OCc3nc(-c4ccccc4)oc3C)no2)cc1CCC(=O)O
160 to 162 | Nc1cccc(-c2ccc(CCN3CCN(C(=O)Nc4ccc(Cl)cc4)CC3)cc2)n1
175 to 176 | COc1cc(-c2c(Cl)c(CN3C(=O)CCC3=O)nc3sc4c(c23)CCNC4)ccc1OC(C)C
70 | O=C(O)CCCCOc1cccc(CNC(=O)C2Cc3ccccc3N2S(=O)(=O)c2ccc(-c3cccc(C(F)(F)F)c3)cc2)c1 (centres undefined)
348 to 352 | NC(=O)c1ccc2nc3sc(-c4ccccc4)cc3c(=O)n2c1
